SMILES strings stand for the structures.

We go through three compounds from patent publication US8268816B2, “Compounds for modulating integrin CD11b/CD18” (priority 2006, dated 2012).

The target of one test is T1, integrin CD11b/CD18 (Homo sapiens, UniProt P05107+P11215).
T1 construct: expressed in transfected cells
As to the kind of experiment: no-wash cell adhesion assay for agonists: K562 CD11b/CD18 cells on fibrinogen in TBS++. In kind it is cell-based. The method, then: Maxisorp microtiter plates (96- and 384-well) were coated with 1-20 μg/mL fibrinogen (Fg) ligand in PBS^++ overnight at 4° C. Subsequently, the Fg-coated wells were washed with TBS and non-specific sites were blocked by incubation with 2% non-fat milk in TBS at room temperature for 30 min. Next, the wells were washed three times with TBS and the coated microtiter plates were used in the HTS assays.
All the adhesion assays were carried out in the screening facility at the Institute of Chemistry and Cell Biology (ICCB), Harvard Medical School using the available small molecule libraries and equipment. Actimol Timtec 1 small molecule library (6,612 compounds) has been previously described (http://iccb.med.harvard.edu/screening/compound_libraries). The small molecule library is stocked in 384-well plates at −80° C. and as sealed plates, with each well's containing a unique compound dissolved in DMSO at approximately 5 mg/mL. […] Adherent cells were quantitated using either cell viability measuring reagents or automated imaging (see below).
For quantitation of adherent cells using a cell viability measuring kit (such as MTS-based CellTiter-One (Promega), CyQuant (Molecular Probes) or Luciferase-based CellTiter-Glo (Promega)), the non-adherent cells were removed by complete aspiration using an automated liquid handling machine (ELx405, Bio-Tek Instruments, VT) and the assay reagent added according to manufacturer's instructions. For automated imaging based quantitation of adherent cells, the non-adherent cells were fixed by adding a small volume of formaldehyde (1.1% v/v final concentration) and the plates were kept inverted for an additional 1 h. Upon cell fixation, the wells were washed with TBS using automated liquid handling machine (ELx405) and the adherent cells were fluorescently labeled with DAPI (0.5 μM final in TBS with 0.1% TritonX-100) and quantitated using automated microscope (see below).
CellWorx automated microscope (Cellomics, Pa.) was set at 0.3 s exposure using DAPI filter set to capture 1-3 images per well. […] Data output files were analyzed using MS Excel. […]

For test [1], the system named is thioglycolate-induced peritonitis mouse model. As to the kind of experiment: thioglycolate-induced peritonitis, neutrophil influx into the peritoneum. In kind it is in vivo, C57BL6 mice. The following applies: 4 μg i.v. about 5 min after i.p. 4% thioglycolate, lavage at 12 h, flow cytometry. The procedure:
The wild-type (WT) C57BL6 mice of approximately six weeks of age were purchased from Charles River Labs (Boston, Mass.). Mice were injected intraperitoneally with 1 mL of 4% w/v sterile thioglycolate (TG) (Sigma, St. Louis, […].) in PBS. Control mice were injected with PBS alone. Approximately five minutes after TG injection, 4 μg each of compounds IMB-8, -6 or -11 were administered in 0.5 mL PBS through a tail vein injection. Twelve hours post-injection, the percentage of infiltrated neutrophils in the peritoneal lavage was determined using flow cytometry. Cells from the lavage fluid were labeled with FITC-labeled anti-mouse GR1 and PE-labeled anti-mouse CD11b antibodies (BD Pharmingen, Jan Jose, Calif.) and analyzed using FACS Calibur flow cytometer.

A further test addresses T2, integrin CD11a/CD18 (Homo sapiens, UniProt P05107+P20701).
T2 construct: expressed in transfected cells; host or cells: K562 cells stably expressing CD11a/CD18
As to the kind of experiment: adhesion of K562 CD11a/CD18 cells to ICAM1-Fc in TBS++. In kind it is cell-based. The following applies: dose-response, increasing amounts of small molecule. The procedure: Maxisorp microtiter plates (384-well) were coated with 1-20 μg/mL fibrinogen (Fg), 4 μg/mL iC3b or 0.375 μg/mL ICAM1-Fc ligands in PBS^++ overnight at 4° C.
For the adhesion assay in 384-well plates, the K562 cells were washed with TBS and cells (30,000/well) were transferred to the ligand-coated wells (Fg for CD11b/CD18 and ICAM1-Fc (R&D Systems, Minneapolis, Minn.) for CD11a/CD18) of microtiter plates in the assay buffer (TBS containing 1 mM each of Ca^2+ and Mg^2+ (TBS^++). Compounds were transferred to each well and the assay plates were incubated at 37° C. in the presence of small molecule compounds and were incubated with small molecules for 30 min. In order to dislodge the non-adherent cell, the assay plates were gently inverted and kept in the inverted position for 20 min at room temperature. Adherent cells were quantified using either cell viability measuring reagents or automated imaging (see below).

T1 sequence (P05107 23-769, other chains not shown): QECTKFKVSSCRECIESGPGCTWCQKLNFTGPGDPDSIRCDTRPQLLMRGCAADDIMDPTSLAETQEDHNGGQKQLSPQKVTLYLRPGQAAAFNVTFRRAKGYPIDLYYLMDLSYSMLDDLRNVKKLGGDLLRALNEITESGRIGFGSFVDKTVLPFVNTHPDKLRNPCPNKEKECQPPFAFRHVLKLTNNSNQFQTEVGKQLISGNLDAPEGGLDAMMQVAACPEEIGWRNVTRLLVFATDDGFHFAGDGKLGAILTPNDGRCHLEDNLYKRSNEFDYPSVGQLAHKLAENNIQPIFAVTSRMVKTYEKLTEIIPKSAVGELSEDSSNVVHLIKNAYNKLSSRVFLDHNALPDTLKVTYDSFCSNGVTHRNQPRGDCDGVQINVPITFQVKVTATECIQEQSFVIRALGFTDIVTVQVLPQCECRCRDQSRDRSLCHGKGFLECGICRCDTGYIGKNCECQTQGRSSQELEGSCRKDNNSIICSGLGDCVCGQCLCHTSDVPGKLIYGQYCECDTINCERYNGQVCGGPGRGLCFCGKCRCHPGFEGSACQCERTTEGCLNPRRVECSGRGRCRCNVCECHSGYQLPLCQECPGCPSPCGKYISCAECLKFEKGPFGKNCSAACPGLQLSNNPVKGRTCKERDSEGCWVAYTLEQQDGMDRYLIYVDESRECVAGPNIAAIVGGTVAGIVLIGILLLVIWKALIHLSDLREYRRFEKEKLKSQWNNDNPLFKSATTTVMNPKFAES
T2 sequence (P20701 26-1170): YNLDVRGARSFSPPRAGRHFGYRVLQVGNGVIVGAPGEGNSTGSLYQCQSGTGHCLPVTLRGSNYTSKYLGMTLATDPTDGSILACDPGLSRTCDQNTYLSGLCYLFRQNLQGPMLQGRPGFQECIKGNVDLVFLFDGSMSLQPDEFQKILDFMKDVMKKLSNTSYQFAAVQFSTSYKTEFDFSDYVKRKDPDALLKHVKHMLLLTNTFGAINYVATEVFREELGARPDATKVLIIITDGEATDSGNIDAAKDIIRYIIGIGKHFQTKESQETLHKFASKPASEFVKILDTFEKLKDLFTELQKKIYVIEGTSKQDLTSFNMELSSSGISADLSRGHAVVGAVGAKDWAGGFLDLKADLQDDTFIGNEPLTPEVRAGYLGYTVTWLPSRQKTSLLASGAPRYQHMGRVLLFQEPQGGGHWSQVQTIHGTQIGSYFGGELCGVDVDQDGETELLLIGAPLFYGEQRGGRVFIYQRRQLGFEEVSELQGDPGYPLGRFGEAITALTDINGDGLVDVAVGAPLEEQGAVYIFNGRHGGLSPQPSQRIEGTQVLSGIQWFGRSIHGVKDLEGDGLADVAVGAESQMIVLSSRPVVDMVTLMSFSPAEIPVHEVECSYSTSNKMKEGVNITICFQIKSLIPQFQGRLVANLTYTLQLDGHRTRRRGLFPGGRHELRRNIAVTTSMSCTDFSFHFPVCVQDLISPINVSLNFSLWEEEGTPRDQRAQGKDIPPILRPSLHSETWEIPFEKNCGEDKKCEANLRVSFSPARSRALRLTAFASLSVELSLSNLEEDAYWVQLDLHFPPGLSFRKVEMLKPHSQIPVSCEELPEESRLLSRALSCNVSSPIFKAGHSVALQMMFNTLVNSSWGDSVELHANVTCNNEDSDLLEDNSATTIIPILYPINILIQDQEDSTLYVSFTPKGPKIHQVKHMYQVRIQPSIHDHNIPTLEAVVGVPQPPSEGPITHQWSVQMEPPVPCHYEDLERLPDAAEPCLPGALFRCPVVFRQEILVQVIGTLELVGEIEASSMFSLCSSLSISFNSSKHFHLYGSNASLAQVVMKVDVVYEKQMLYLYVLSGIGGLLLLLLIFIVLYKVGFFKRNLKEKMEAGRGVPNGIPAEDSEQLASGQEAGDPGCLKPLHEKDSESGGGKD
T2 sequence (P05107 23-769): as the sequence (P05107 23-769, other chains not shown) above

Consider `N=C1SC(=Cc2ccco2)C(=O)N1c1nccs1` [Compound 9], for which, on integrin CD11b/CD18 (secondary screen, read-out: EC50, concentration required for half-maximal increase in cell-adhesion), the EC50 was around 6.7 µM.

As to `O=C1CSC(NC(=O)N2c3ccccc3Sc3ccccc32)=N1` [Compound 11], on integrin CD11b/CD18 (K562 CD11b/CD18 on fibrinogen versus K562 CD11a/CD18 on ICAM1), the “selectivity for integrin CD11b/CD18 over integrin CD11a/CD18 in cell adhesion” value is given as “selectively increased adhesion”. In addition, the “neutrophil influx into the peritoneum due to TG injection” value is recorded as “reduce leukocyte recruitment” in test [1] and “remarkable decrease” in test [1] (listed as compound 11).

As for `Cc1ccccc1N1C(=O)/C(=C/C=C/c2ccccc2)SC1=S` [IMB-10, reference compound], the “adhesion of K562 cells stably expressing integrin CD11b/CD18 to fibrinogen” value at integrin CD11b/CD18 (dose-response, increasing amounts of small molecule, TBS++) is on record as “increased equally well the adhesion”. Further, the “adhesion of K562 cells stably expressing integrin CD11a/CD18 to ICAM1” value on integrin CD11a/CD18 is recorded as “increased equally well the adhesion”.
